This note sets out measurements from patent US6541450B1, “Parathyroid hormone analogues for the treatment of osteoporosis” (National Research Council of Canada, priority 1994, dated 2003).

Molecules are shown by their SMILES. Where a SMILES comes first, the peptide text is derived from it. Bridges are numbered along the chain shown (N, C = ends). [ ]: non-standard residue; d: D form. Orn = NCCC[C@H](N)C(=O)O

The assay has as its target T1, adenylyl cyclase, ROS 17/2 cells (Rattus norvegicus, UniProt P25961).
T1 sequence (P25961 27-591): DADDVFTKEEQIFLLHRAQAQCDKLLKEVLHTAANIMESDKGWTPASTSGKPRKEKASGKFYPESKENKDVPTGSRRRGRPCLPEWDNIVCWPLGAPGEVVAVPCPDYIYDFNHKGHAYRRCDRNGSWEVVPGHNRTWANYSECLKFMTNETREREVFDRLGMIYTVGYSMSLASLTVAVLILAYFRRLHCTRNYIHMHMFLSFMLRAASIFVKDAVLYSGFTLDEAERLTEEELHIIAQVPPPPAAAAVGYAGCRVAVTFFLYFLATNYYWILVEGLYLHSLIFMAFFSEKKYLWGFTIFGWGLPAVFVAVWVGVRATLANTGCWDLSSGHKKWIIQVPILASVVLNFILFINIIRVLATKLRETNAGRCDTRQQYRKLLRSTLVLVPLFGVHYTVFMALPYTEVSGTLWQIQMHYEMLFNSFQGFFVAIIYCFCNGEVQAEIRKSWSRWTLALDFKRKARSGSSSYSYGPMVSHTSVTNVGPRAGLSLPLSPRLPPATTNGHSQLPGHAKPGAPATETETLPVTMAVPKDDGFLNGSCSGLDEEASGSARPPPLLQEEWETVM
The assay can be described thus: Adenylyl cyclase stimulation, [3H]-cyclic AMP production in ROS 17/2 cells. Format: cell-based. The following applies: ROS 17/2 cells; concentration for half-maximal increase in AC activity; read-out: Adenylyl Cyclase (EC50).
Turning to `CC[C@H](C)[C@H](NC(=O)[C@H](CCC(=O)O)NC(=O)[C@H](CO)NC(=O)[C@@H](NC(=O)[C@@H](N)CO)C(C)C)C(=O)N[C@@H](CCC(N)=O)C(=O)N[C@@H](CC(C)C)C(=O)N[C@@H](CCSC)C(=O)N[C@@H](Cc1c[nH]cn1)C(=O)N[C@@H](CC(N)=O)C(=O)N[C@@H](CC(C)C)C(=O)NCC(=O)N[C@@H](CCCCN)C(=O)N[C@@H](Cc1c[nH]cn1)C(=O)N[C@@H](CC(C)C)C(=O)N[C@@H](CC(N)=O)C(=O)N[C@@H](CO)C(=O)N[C@@H](CCSC)C(=O)N[C@@H](CCC(=O)O)C(=O)N[C@@H](CCCNC(=N)N)C(=O)N[C@H](C(=O)N[C@H]1CC(=O)NCCC[C@@H](C(=O)N[C@@H](CC(C)C)C(=O)N[C@@H](CC(C)C)C(=O)N[C@@H](CCC(N)=O)C(=O)N[C@@H](CC(=O)O)C(=O)N[C@H](C(N)=O)C(C)C)NC(=O)[C@H](CCCNC(=N)N)NC(=O)[C@H](CC(C)C)NC(=O)[C@H](Cc2c[nH]c3ccccc23)NC1=O)C(C)C` [[Leu^27]cyclo(Asp^22—Orn^26)—hPTH—(1-31)-NH2] (H-SVSEIQLMHNLGKHLNSMERVDWLR[Orn]LLQDV-NH2; lactam 22-26; N-terminus assumed), the EC50 was greater than 200 nM.
The value for `CC[C@H](C)[C@H](NC(=O)[C@H](CCC(=O)O)NC(=O)[C@H](CO)NC(=O)[C@@H](NC(=O)[C@H](CO)NC(C)=O)C(C)C)C(=O)N[C@@H](CCC(N)=O)C(=O)N[C@@H](CC(C)C)C(=O)N[C@@H](CCSC)C(=O)N[C@@H](Cc1c[nH]cn1)C(=O)N[C@@H](CC(N)=O)C(=O)N[C@@H](CC(C)C)C(=O)NCC(=O)N[C@@H](CCCCN)C(=O)N[C@@H](Cc1c[nH]cn1)C(=O)N[C@@H](CC(C)C)C(=O)N[C@@H](CC(N)=O)C(=O)N[C@@H](CO)C(=O)N[C@@H](CCSC)C(=O)N[C@@H](CCC(=O)O)C(=O)N[C@@H](CCCNC(=N)N)C(=O)N[C@H](C(=O)N[C@H]1CCC(=O)NCCCC[C@@H](C(=O)N[C@@H](CC(C)C)C(=O)N[C@@H](CC(C)C)C(=O)N[C@@H](CCC(N)=O)C(=O)N[C@@H](CC(=O)O)C(=O)N[C@H](C(N)=O)C(C)C)NC(=O)[C@H](CCCNC(=N)N)NC(=O)[C@H](CC(C)C)NC(=O)[C@H](Cc2c[nH]c3ccccc23)NC1=O)C(C)C` [α-acetyl-[Leu^27]cyclo(Glu^22—Lys^26)—hPTH—(1-31)-NH2] (Ac-SVSEIQLMHNLGKHLNSMERVEWLRKLLQDV-NH2; lactam 22-26) was 24 nM; that for `CC[C@H](C)[C@H](NC(=O)[C@H](CCC(=O)O)NC(=O)[C@H](CO)NC(=O)[C@@H](NC(=O)[C@@H](N)CO)C(C)C)C(=O)N[C@@H](CCC(N)=O)C(=O)N[C@@H](CC(C)C)C(=O)N[C@@H](CCSC)C(=O)N[C@@H](Cc1c[nH]cn1)C(=O)N[C@@H](CC(N)=O)C(=O)N[C@@H](CC(C)C)C(=O)NCC(=O)N[C@@H](CCCCN)C(=O)N[C@@H](Cc1c[nH]cn1)C(=O)N[C@@H](CC(C)C)C(=O)N[C@@H](CC(N)=O)C(=O)N[C@@H](CO)C(=O)N[C@@H](CCSC)C(=O)N[C@@H](CCC(=O)O)C(=O)N[C@@H](CCCNC(=N)N)C(=O)N[C@H](C(=O)N[C@H]1CCC(=O)NCCCC[C@@H](C(=O)N[C@@H](Cc2ccc(O)cc2)C(=O)N[C@@H](CC(C)C)C(=O)N[C@@H](CCC(N)=O)C(=O)N[C@@H](CC(=O)O)C(=O)N[C@H](C(N)=O)C(C)C)NC(=O)[C@H](CCCNC(=N)N)NC(=O)[C@H](CC(C)C)NC(=O)[C@H](Cc2c[nH]c3ccccc23)NC1=O)C(C)C` [[Tyr^27]cyclo(Glu^22—Lys^26)—hPTH—(1-31)-NH2] (H-SVSEIQLMHNLGKHLNSMERVEWLRKYLQDV-NH2; lactam 22-26; N-terminus assumed) was 9 nM.

What is called EC50 is the midpoint of the concentration-response curve.
